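These data come from cells grown in 96-well plates and exposed to compound for 48 hours at five concentrations. GI50: concentration for 50% inhibition of growth.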 Calls of active or inactive are those of the source. No stated cut-off is given here; in the data, active = GI50 up to about 1.1 µM and inactive = higher.
Columns and labels:
Experiment in all cases: DTP human tumour cell line panel, 48 h
NCI-H522 = system: NCI-H522
UO-31 = system: UO-31
SK-OV-3 = system: SK-OV-3
A549 = system: A549
HOP-18 = system: HOP-18
ACHN = system: ACHN
OVCAR-5 = system: OVCAR-5
RPMI-8226 = system: RPMI-8226
HCT-15 = system: HCT-15
OVCAR-4 = system: OVCAR-4
COLO 205 = system: COLO 205
M14 = system: M14
RXF 393 = system: RXF 393
SF-539 = system: SF-539
TK-10 = system: TK-10
HOP-92 = system: HOP-92
CCRF-CEM = system: CCRF-CEM
MDA-N = system: MDA-N
NCI/ADR-RES = system: NCI/ADR-RES
BT-549 = system: BT-549

SMILES: COCN1COCN/C1=N\C#N
- GI50 (NCI-H522): > 100 µM (inactive)
- GI50 (UO-31): > 100 µM (inactive)
- GI50 (SK-OV-3): > 100 µM (inactive)
- GI50 (A549): > 100 µM (inactive)
- GI50 (HOP-18): > 100 µM (inactive)
- GI50 (ACHN): > 100 µM (inactive)
- GI50 (OVCAR-5): > 100 µM (inactive)
- GI50 (RPMI-8226): > 100 µM (inactive)
- GI50 (HCT-15): 51.8 µM
- GI50 (OVCAR-4): 75.5 µM (inactive)
- GI50 (COLO 205): 41 µM (inactive)
- GI50 (M14): > 100 µM (inactive)
- GI50 (RXF 393): 83.2 µM (inactive)
- GI50 (SF-539): > 100 µM (inactive)
- GI50 (TK-10): > 100 µM (inactive)
- GI50 (HOP-92): > 100 µM (inactive)

SMILES: COC(=O)C(=O)Cc1nc2ccccc2s1
- GI50 (NCI-H522): > 100 µM (inactive)
- GI50 (UO-31): > 100 µM (inactive)
- GI50 (SK-OV-3): > 100 µM (inactive)
- GI50 (A549): > 100 µM (inactive)
- GI50 (HOP-18): > 100 µM (inactive)
- GI50 (CCRF-CEM): > 100 µM (inactive)
- GI50 (ACHN): > 100 µM (inactive)
- GI50 (OVCAR-5): > 100 µM (inactive)
- GI50 (HCT-15): > 100 µM
- GI50 (OVCAR-4): > 100 µM (inactive)
- GI50 (COLO 205): > 100 µM (inactive)
- GI50 (M14): > 100 µM (inactive)
- GI50 (RXF 393): > 100 µM (inactive)
- GI50 (SF-539): > 100 µM (inactive)
- GI50 (TK-10): > 100 µM (inactive)
- GI50 (HOP-92): > 100 µM (inactive)

SMILES: Cc1c(/C=N/NS(=O)(=O)c2ccccc2)no[n+]1[O-]
- GI50 (NCI-H522): > 100 µM (inactive)
- GI50 (UO-31): 2.92 µM (inactive)
- GI50 (SK-OV-3): > 100 µM (inactive)
- GI50 (A549): > 100 µM (inactive)
- GI50 (HOP-18): > 100 µM (inactive)
- GI50 (CCRF-CEM): > 100 µM (inactive)
- GI50 (OVCAR-5): > 100 µM (inactive)
- GI50 (RPMI-8226): > 100 µM (inactive)
- GI50 (HCT-15): > 100 µM
- GI50 (OVCAR-4): > 100 µM (inactive)
- GI50 (COLO 205): > 100 µM (inactive)
- GI50 (M14): > 100 µM (inactive)
- GI50 (RXF 393): > 100 µM (inactive)
- GI50 (SF-539): > 100 µM (inactive)
- GI50 (TK-10): > 100 µM (inactive)
- GI50 (HOP-92): > 100 µM (inactive)

SMILES: CC[C@]1(O)C[C@H]2CN(CCc3c([nH]c4ccccc34)[C@@](C(=O)OC)(c3cc4c(cc3OC)N(C)[C@H]3[C@@](O)(C(=O)OC)[C@H](OC(C)=O)[C@]5(CC)C=CCN6CC[C@]43[C@@H]65)C2)C1
- GI50 (MDA-N): 0.000476 µM (active)
- GI50 (NCI-H522): 0.000309 µM (active)
- GI50 (UO-31): 0.143 µM (active)
- GI50 (SK-OV-3): 0.000867 µM (active)
- GI50 (A549): 0.00157 µM (active)
- GI50 (HOP-18): 0.573 µM (active)
- GI50 (CCRF-CEM): 0.000641 µM (active)
- GI50 (ACHN): 0.00849 µM (active)
- GI50 (RPMI-8226): 0.000679 µM (active)
- GI50 (HCT-15): 0.0241 µM
- GI50 (OVCAR-4): 0.136 µM (active)
- GI50 (COLO 205): 0.000435 µM (active)
- GI50 (M14): 0.000762 µM (active)
- GI50 (NCI/ADR-RES): 0.115 µM (active)
- GI50 (SF-539): 0.000605 µM (active)
- GI50 (BT-549): 0.00126 µM (active)
- GI50 (HOP-92): 0.00227 µM (active)

SMILES: CC(=O)OC1C/C(C)=C/[C@H](O)CC(C)/C=C/[C@@]2(C)CCC(C(C)(C)O)C12 (stereo partly drawn)
- GI50 (UO-31): > 100 µM (inactive)
- GI50 (SK-OV-3): > 100 µM (inactive)
- GI50 (A549): > 100 µM (inactive)
- GI50 (HOP-18): > 100 µM (inactive)
- GI50 (CCRF-CEM): > 100 µM (inactive)
- GI50 (ACHN): > 100 µM (inactive)
- GI50 (OVCAR-5): > 100 µM (inactive)
- GI50 (RPMI-8226): > 100 µM (inactive)
- GI50 (HCT-15): > 100 µM
- GI50 (OVCAR-4): > 100 µM (inactive)
- GI50 (COLO 205): > 100 µM (inactive)
- GI50 (M14): > 100 µM (inactive)
- GI50 (RXF 393): > 100 µM (inactive)
- GI50 (SF-539): > 100 µM (inactive)
- GI50 (TK-10): > 100 µM (inactive)
- GI50 (HOP-92): > 100 µM (inactive)

SMILES: O=C1C=CC(S(=O)(=O)C2=C/C(=C/Nc3ccc(Cl)cc3)C(=O)C=C2)=C/C1=C/Nc1ccc(Cl)cc1
- GI50 (NCI-H522): > 100 µM (inactive)
- GI50 (UO-31): > 100 µM (inactive)
- GI50 (SK-OV-3): > 100 µM (inactive)
- GI50 (A549): > 100 µM (inactive)
- GI50 (HOP-18): > 100 µM (inactive)
- GI50 (CCRF-CEM): > 100 µM (inactive)
- GI50 (ACHN): > 100 µM (inactive)
- GI50 (OVCAR-5): > 100 µM (inactive)
- GI50 (RPMI-8226): > 100 µM (inactive)
- GI50 (OVCAR-4): > 100 µM (inactive)
- GI50 (COLO 205): > 100 µM (inactive)
- GI50 (M14): > 100 µM (inactive)
- GI50 (RXF 393): > 100 µM (inactive)
- GI50 (SF-539): > 100 µM (inactive)
- GI50 (TK-10): > 100 µM (inactive)
- GI50 (HOP-92): > 100 µM (inactive)

SMILES: Nc1nc(-c2ccccc2)c(Cl)c(-c2cc(Cl)ccc2O)n1
- GI50 (MDA-N): > 100 µM (inactive)
- GI50 (NCI-H522): 11.6 µM (inactive)
- GI50 (UO-31): 16 µM (inactive)
- GI50 (SK-OV-3): 17.3 µM (inactive)
- GI50 (A549): 19.5 µM (inactive)
- GI50 (HOP-18): 42.3 µM (inactive)
- GI50 (CCRF-CEM): > 96.2 µM (inactive)
- GI50 (ACHN): 8.89 µM (inactive)
- GI50 (OVCAR-5): > 60 µM (inactive)
- GI50 (RPMI-8226): > 86.7 µM (inactive)
- GI50 (HCT-15): 18.4 µM
- GI50 (OVCAR-4): 15.3 µM (inactive)
- GI50 (COLO 205): > 100 µM (inactive)
- GI50 (M14): > 100 µM (inactive)
- GI50 (RXF 393): 13.8 µM (inactive)
- GI50 (SF-539): 25.1 µM (inactive)
- GI50 (BT-549): 20.4 µM (inactive)
- GI50 (TK-10): 15.5 µM (inactive)
- GI50 (HOP-92): 39.5 µM (inactive)

SMILES: CCOC(=O)c1c(NNc2ccccc2)nc2ccccc2c1-c1ccccc1
- GI50 (NCI-H522): 30.1 µM (inactive)
- GI50 (UO-31): 25.8 µM (inactive)
- GI50 (SK-OV-3): 65.5 µM (inactive)
- GI50 (A549): 34.5 µM (inactive)
- GI50 (HOP-18): 28.6 µM (inactive)
- GI50 (CCRF-CEM): 10.9 µM (inactive)
- GI50 (ACHN): 39.5 µM (inactive)
- GI50 (OVCAR-5): 56.1 µM (inactive)
- GI50 (RPMI-8226): 11.9 µM (inactive)
- GI50 (HCT-15): 33 µM
- GI50 (OVCAR-4): 37.5 µM (inactive)
- GI50 (COLO 205): 30 µM (inactive)
- GI50 (M14): 27.3 µM (inactive)
- GI50 (RXF 393): 42 µM (inactive)
- GI50 (SF-539): 25.6 µM (inactive)
- GI50 (TK-10): 80.4 µM (inactive)
- GI50 (HOP-92): 27.9 µM (inactive)

SMILES: CCCCCCCCCCCCCCCCSS(C)(=O)=O
- GI50 (MDA-N): 14.8 µM (inactive)
- GI50 (NCI-H522): 4.48 µM (inactive)
- GI50 (UO-31): 20.8 µM (inactive)
- GI50 (SK-OV-3): 97.9 µM (inactive)
- GI50 (A549): > 65.3 µM (inactive)
- GI50 (HOP-18): 58.7 µM (inactive)
- GI50 (CCRF-CEM): 3.03 µM (inactive)
- GI50 (ACHN): 13.4 µM (inactive)
- GI50 (OVCAR-5): > 91 µM (inactive)
- GI50 (RPMI-8226): 5 µM (inactive)
- GI50 (HCT-15): 11 µM
- GI50 (OVCAR-4): 18.7 µM (inactive)
- GI50 (COLO 205): 19.2 µM (inactive)
- GI50 (M14): 9.42 µM (inactive)
- GI50 (NCI/ADR-RES): 2.33 µM (inactive)
- GI50 (RXF 393): 5.43 µM (inactive)
- GI50 (SF-539): 17.9 µM (inactive)
- GI50 (BT-549): 4.42 µM (inactive)
- GI50 (TK-10): 24.1 µM (inactive)
- GI50 (HOP-92): 15.5 µM (inactive)

— ChEMBL document CHEMBL1201862, “PubChem BioAssay data set” (2004)
